ChEMBL document CHEMBL1152085, “Novel 3-deoxy-3-descladinosyl-6-O-methyl erythromycin a analogues. Synthesis and in vitro activity” (1997)
Values after ≈ are worked out from the molar mass of the structure shown.

Key:
Assay type in all cases: functional
[1] = test system: Enterococcus faecium; assay: Tested in vitro for minimum inhibitory concentration to produce antibacterial activity against Enterococcus faecium ATCC 8043
[2] = test system: Enterococcus faecium; assay: Tested in vitro for minimum inhibitory concentration to produce antibacterial activity against Enterococcus faecium ATCC 8043 in presence of erythromycin A
[3] = test system: Escherichia coli; assay: Tested in vitro for minimum inhibitory concentration to produce antibacterial activity against Escherichia coli JUHL
[4] = test system: Escherichia coli; assay: Tested in vitro for minimum inhibitory concentration to produce antibacterial activity against Escherichia coli JUHL in presence of erythromycin A
[5] = test system: Escherichia coli; assay: Tested in vitro for minimum inhibitory concentration to produce antibacterial activity against Escherichia coli SS
[6] = test system: Escherichia coli; assay: Tested in vitro for minimum inhibitory concentration to produce antibacterial activity against Escherichia coli SS in presence of erythromycin A
[7] = test system: Staphylococcus epidermidis; assay: Tested in vitro for minimum inhibitory concentration to produce antibacterial activity against Staphylococcus epidermidis 3519
[8] = test system: Staphylococcus epidermidis; assay: Tested in vitro for minimum inhibitory concentration to produce antibacterial activity against Staphylococcus epidermidis 3519 in presence of erythromycin A
[9] = test system: Streptococcus pyogenes; assay: Tested in vitro for minimum inhibitory concentration to produce antibacterial activity against Streptococcus pyogenes 930
[10] = test system: Streptococcus pyogenes; assay: Tested in vitro for minimum inhibitory concentration to produce antibacterial activity against Streptococcus pyogenes 930 in presence of erythromycin A
[11] = test system: Streptococcus pyogenes; assay: Tested in vitro for minimum inhibitory concentration to produce antibacterial activity against Streptococcus pyogenes EES61
[12] = test system: Streptococcus pyogenes; assay: Tested in vitro for minimum inhibitory concentration to produce antibacterial activity against Streptococcus pyogenes EES61 in presence of erythromycin A
[13] = test system: Streptococcus pyogenes; assay: Tested in vitro for minimum inhibitory concentration to produce antibacterial activity against Streptococcus pyogenes PIU 2548
[14] = test system: Streptococcus pyogenes; assay: Tested in vitro for minimum inhibitory concentration to produce antibacterial activity against Streptococcus pyogenes PIU 2548 in presence of erythromycin A
[15] = test system: Streptococcus agalactiae; assay: Tested in vitro for minimum inhibitory concentration to produce antibacterial activity against Streptococcus agalactiae CMX 508
[16] = test system: Streptococcus agalactiae; assay: Tested in vitro for minimum inhibitory concentration to produce antibacterial activity against Streptococcus agalactiae CMX 508 in presence of erythromycin A
[17] = test system: Staphylococcus aureus; assay: Tested in vitro for minimum inhibitory concentration to produce antibacterial activity against Staphylococcus aureus 1775
[18] = test system: Staphylococcus aureus; assay: Tested in vitro for minimum inhibitory concentration to produce antibacterial activity against Staphylococcus aureus 1775 in presence of erythromycin A
[19] = test system: Staphylococcus aureus; assay: Tested in vitro for minimum inhibitory concentration to produce antibacterial activity against Staphylococcus aureus A-5278
[20] = test system: Staphylococcus aureus; assay: Tested in vitro for minimum inhibitory concentration to produce antibacterial activity against Staphylococcus aureus A-5278 in presence of erythromycin A
[21] = test system: Staphylococcus aureus; assay: Tested in vitro for minimum inhibitory concentration to produce antibacterial activity against Staphylococcus aureus A5177
[22] = test system: Staphylococcus aureus; assay: Tested in vitro for minimum inhibitory concentration to produce antibacterial activity against Staphylococcus aureus A5177 in presence of erythromycin A
[23] = test system: Staphylococcus aureus; assay: Tested in vitro for minimum inhibitory concentration to produce antibacterial activity against Staphylococcus aureus ATCC 6538P
[24] = test system: Staphylococcus aureus; assay: Tested in vitro for minimum inhibitory concentration to produce antibacterial activity against Staphylococcus aureus ATCC 6538P in presence of erythromycin A
[25] = test system: Staphylococcus aureus; assay: Tested in vitro for minimum inhibitory concentration to produce antibacterial activity against Staphylococcus aureus CMX 553
[26] = test system: Staphylococcus aureus; assay: Tested in vitro for minimum inhibitory concentration to produce antibacterial activity against Staphylococcus aureus CMX 553 in presence of erythromycin A
[27] = test system: Staphylococcus aureus; assay: Tested in vitro for minimum inhibitory concentration to produce antibacterial activity against Staphylococcus aureus CMX 642A
[28] = test system: Staphylococcus aureus; assay: Tested in vitro for minimum inhibitory concentration to produce antibacterial activity against Staphylococcus aureus CMX 642A in presence of erythromycin A
[29] = test system: Streptococcus equinus; assay: Tested in vitro for minimum inhibitory concentration to produce antibacterial activity against Streptococcus bovis A-5169
[30] = test system: Streptococcus equinus; assay: Tested in vitro for minimum inhibitory concentration to produce antibacterial activity against Streptococcus bovis A-5169 in presence of erythromycin A
[31] = test system: Staphylococcus aureus; assay: Tested in vitro for minimum inhibitory concentration to produce antibacterial activity against Staphylococcus aureus NCTC-10649M
[32] = test system: Staphylococcus aureus; assay: Tested in vitro for minimum inhibitory concentration to produce antibacterial activity against Staphylococcus aureus NCTC-10649M in presence of erythromycin A

| MIC [1] [µg/mL] | MIC [2] [µg/mL] | MIC [3] [µg/mL] | MIC [4] [µg/mL] | MIC [5] [µg/mL] | MIC [6] [µg/mL] | MIC [7] [µg/mL] | MIC [8] [µg/mL] | MIC [9] [µg/mL] | MIC [10] [µg/mL] | MIC [11] [µg/mL] | MIC [12] [µg/mL] | MIC [13] [µg/mL] | MIC [14] [µg/mL] | MIC [15] [µg/mL] | MIC [16] [µg/mL] | MIC [17] [µg/mL] | MIC [18] [µg/mL] | MIC [19] [µg/mL] | MIC [20] [µg/mL] | Compound | other results |
| --- | --- | --- | --- | --- | --- | --- | --- | --- | --- | --- | --- | --- | --- | --- | --- | --- | --- | --- | --- | --- | --- |
| 6.2 (≈ 9.12 µM) | 0.05 | > 100 | 50 | 0.39 (≈ 0.574 µM) | 0.2 | 25 (≈ 36.8 µM) | 0.2 | 100 (≈ 147 µM) | > 100 | 0.78 (≈ 1.15 µM) | 0.02 | 1.56 (≈ 2.29 µM) | 6.2 | 0.78 (≈ 1.15 µM) | 0.02 | > 100 | > 100 | > 100 | > 100 | CC[C@H]1OC(=O)[C@H](C)[C@@H](OC(=S)SC)[C@H](C)[C@@H](O[C@@H]2O[C@H](C)C[C@H](N(C)C)[C@H]2O)[C@](C)(OC)C[C@@H](C)C(=O)[C@H](C)[C@@H](O)[C@]1(C)O | MIC [21]: 25 µg/mL (≈ 36.8 µM); MIC [22]: 3.1 µg/mL; MIC [23]: 25 µg/mL (≈ 36.8 µM); MIC [24]: 0.2 µg/mL; MIC [25]: 25 µg/mL (≈ 36.8 µM); MIC [26]: 0.2 µg/mL; MIC [27]: 25 µg/mL (≈ 36.8 µM); MIC [28]: 0.2 µg/mL; MIC [29]: 0.39 µg/mL (≈ 0.574 µM); MIC [30]: 0.02 µg/mL; MIC [31]: 12.5 µg/mL (≈ 18.4 µM); MIC [32]: 0.2 µg/mL |
| 25 (≈ 40.5 µM) | 0.05 | > 100 | 25 | 3.1 (≈ 5.03 µM) | 0.2 | 25 (≈ 40.5 µM) | 0.39 | > 100 | > 100 | 3.1 (≈ 5.03 µM) | 0.02 | 25 (≈ 40.5 µM) | 3.1 | 3.1 (≈ 5.03 µM) | 0.1 | > 100 | > 100 | > 100 | > 100 | CCO/N=C1\[C@H](C)C[C@@](C)(OC)[C@H](O[C@@H]2O[C@H](C)C[C@H](N(C)C)[C@H]2O)[C@@H](C)C[C@@H](C)C(=O)O[C@H](CC)[C@@](C)(O)[C@H](O)[C@H]1C | MIC [21]: 25 µg/mL (≈ 40.5 µM); MIC [22]: 3.1 µg/mL; MIC [23]: 25 µg/mL (≈ 40.5 µM); MIC [24]: 0.39 µg/mL; MIC [25]: 50 µg/mL (≈ 81.1 µM); MIC [26]: 0.39 µg/mL; MIC [27]: 50 µg/mL (≈ 81.1 µM); MIC [28]: 0.39 µg/mL; MIC [29]: 3.1 µg/mL (≈ 5.03 µM); MIC [30]: 0.01 µg/mL; MIC [31]: 12.5 µg/mL (≈ 20.3 µM); MIC [32]: 0.39 µg/mL |
| > 100 | 0.2 | > 100 | 50 | > 100 | 0.78 | > 100 | 0.39 | > 100 | 12.5 | 12.5 (≈ 22.5 µM) | 0.01 | > 100 | 12.5 | 25 (≈ 45 µM) | 0.02 | > 100 | > 100 | > 100 | > 100 | CC[C@H]1OC(=O)[C@H](C)C[C@H](C)[C@@H](O[C@@H]2O[C@H](C)C[C@H](N(C)C)[C@H]2O)[C@](C)(OC)C[C@@H](C)C(=O)/C(C)=C/[C@]1(C)O | MIC [21]: > 100 µg/mL; MIC [22]: 3.1 µg/mL; MIC [23]: > 100 µg/mL; MIC [24]: 0.39 µg/mL; MIC [25]: > 100 µg/mL; MIC [26]: 0.39 µg/mL; MIC [27]: > 100 µg/mL; MIC [28]: 0.39 µg/mL; MIC [29]: > 100 µg/mL; MIC [30]: 0.2 µg/mL; MIC [31]: > 100 µg/mL; MIC [32]: 0.39 µg/mL |

| Compound | MIC [1] [µg/mL] | MIC [2] [µg/mL] | MIC [3] [µg/mL] | MIC [4] [µg/mL] | MIC [5] [µg/mL] | MIC [6] [µg/mL] | MIC [7] [µg/mL] | MIC [8] [µg/mL] | MIC [9] [µg/mL] | MIC [10] [µg/mL] | MIC [11] [µg/mL] | MIC [12] [µg/mL] | MIC [13] [µg/mL] | MIC [14] [µg/mL] | MIC [15] [µg/mL] | MIC [16] [µg/mL] | MIC [17] [µg/mL] | MIC [18] [µg/mL] | MIC [19] [µg/mL] | MIC [20] [µg/mL] | other results |
| --- | --- | --- | --- | --- | --- | --- | --- | --- | --- | --- | --- | --- | --- | --- | --- | --- | --- | --- | --- | --- | --- |
| CC[C@H]1OC(=O)[C@H](C)[C@@H](O[C@H]2C[C@@](C)(OC)[C@@H](O)[C@H](C)O2)[C@H](C)[C@@H](O[C@@H]2O[C@H](C)C[C@H](N(C)C)[C@H]2O)[C@](C)(OC)C[C@@H](C)C(=O)[C@H](C)[C@@H](O)[C@]1(C)O [CLARITHROMYCIN] | 0.05 (≈ 0.0668 µM) | 0.05 | 100 (≈ 134 µM) | 50 | 0.39 (≈ 0.521 µM) | 0.39 | 0.12 (≈ 0.16 µM) | 0.03 | > 100 | > 100 | 0.01 (≈ 0.0134 µM) | 0.01 | 8 (≈ 10.7 µM) | 8 | 0.02 (≈ 0.0267 µM) | 0.02 | > 100 | > 100 | > 100 | > 100 | MIC [21]: 1.56 µg/mL (≈ 2.09 µM); MIC [22]: 3.1 µg/mL; MIC [23]: 0.2 µg/mL (≈ 0.267 µM); MIC [24]: 0.2 µg/mL; MIC [25]: 0.12 µg/mL (≈ 0.16 µM); MIC [26]: 0.12 µg/mL; MIC [27]: 0.03 µg/mL (≈ 0.0401 µM); MIC [28]: 0.03 µg/mL; MIC [29]: 0.01 µg/mL (≈ 0.0134 µM); MIC [30]: 0.01 µg/mL; MIC [31]: 0.03 µg/mL (≈ 0.0401 µM); MIC [32]: 0.03 µg/mL |
